The values below come from patent US20100173888A1 (Pfizer Inc, priority 2008, published 2010).

The target in the test is human recombinant H-PGDS (Homo sapiens, UniProt O60760). The experiment in a line: Slightly modified fluorescence intensity h-PGDS TBA enzyme assay (1:40,000 enzyme, 40 second reaction, 1/2 log dilutions, top concentration typically 10 μM). The test is classed as biochemical. The settings on record: slightly modified assay: 1:40,000 human recombinant H-PGDS. As to the method:
Fluoresecence Intensity h-PGDSTBA Enzyme Assay
Prostaglandin D Synthase (PGDS) converts the substrate prostaglandin H2 (PGH2) to prostaglandin D2. The depletion of PGH2 was measured via an Fe(II) reduction of the remaining PGH2 to malondialdehyde (MDA) and 12-HHT. The enzyme assay is based on the quantitative formation of a fluorescent complex from the non-fluorescent compounds MDA and 2-thiobarbituric acid (TBA), substantially as described in U.S. patent application publication US-2004/152148 by Lombardt.
Examples 6-8, 11a-16, 23, 26-47, 49-103, 105-113, 115-118 and 126-128 were tested in a slightly modified assay: The enzyme assay (30 μls during biological process) contained 100 mM Trizma pH 8.0, 100 μM MgCl2, 0.1 mg/ml IgG Rabbit serum, 5.0 μM PGH2 (Cayman; ethanol solution, #17020), 2.5 mM L-Glutathione (Sigma; reduced form #G4251), 1:40,000 human recombinant H-PGDS (from 1 mg/ml), 0.5% DMSO and inhibitor (varying concentration). 3 μls of diluted inhibitor (dissolved in DMSO) was plated into a 384-well assay plate followed by a 24 μl addition of an enzyme solution containing h-PGDS, Trizma, MgCl2, IgG and L-Glutathione. After pre-incubation of inhibitor and enzyme solution for 10 minutes at room temperature, the reaction was initiated with a 3 μl addition of substrate solution in 10 mM HCl. The reaction was terminated after 40 second by the addition of 3 μl stop buffer containing FeCl2 and citric acid. After addition of 45 μls of TBA plates were heated for one hour in a 70° C. oven. Plates were cooled at room temperature overnight and read on a plate reader the next day with excitation @ 530 nm and emission @ 560 nm. IC50' s of inhibitors were calculated with a 4-parameter fit using 11 inhibitor concentrations in duplicate with ½ log serial dilutions. Controls on each plate included no inhibitor (zero % effect) and an inhibitor 500-fold in excess of its' IC50 (100% effect). The highest inhibitor concentration tested was typically 10 μM.

Chain of human recombinant H-PGDS (O60760 whole entry): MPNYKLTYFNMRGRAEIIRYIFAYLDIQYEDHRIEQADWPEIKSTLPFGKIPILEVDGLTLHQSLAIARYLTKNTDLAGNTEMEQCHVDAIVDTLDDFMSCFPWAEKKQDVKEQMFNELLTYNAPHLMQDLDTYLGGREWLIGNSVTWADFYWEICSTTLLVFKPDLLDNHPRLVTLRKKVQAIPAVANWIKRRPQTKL

As for `C[C@H]1CN(C(=O)[C@H]2CC[C@H](NC(=O)c3ccc(-c4cccc(F)c4)nc3)CC2)CCN1` [Example 101, 6-(3-Fluorophenyl)-N-(trans-4-{[(3S)-3-methylpiperazin-1-yl]carbonyl}cyclohexyl)nicotinamide], the IC50 was 15.8 nM.

Take `O=C(N[C@H]1CCC[C@@H](C(=O)NCc2ccccc2)C1)c1ccc(-c2cccc(F)c2)nc1` (relative stereo) [Example 30, N-[cis-3-(Benzylcarbamoyl)cyclohexyl]-6-(3-fluorophenyl)nicotinamide]: the IC50 amounted to 25.6 nM. For `O=C(N[C@H]1CC[C@@H](C(=O)N2CCC(O)CC2)CC1)c1ccc(-c2cccc(F)c2)nc1` [Example 68, 6-(3-Fluorophenyl)-N-{cis-4-[(4-hydroxypiperidin-1-yl)carbonyl]cyclohexyl}nicotinamide], the IC50 came to 13.2 nM.

For `CN1CCN(C(=O)[C@@H]2CCC[C@H](NC(=O)c3ccc(-c4cccc(F)c4)nc3)C2)CC1` (relative stereo) [Example 35, 6-(3-Fluorophenyl)-N-{cis-3-[(4-methylpiperazin-1-yl)carbonyl]cyclohexyl}nicotinamide], the IC50 turned out to be 8.29 nM.

As to `CN(C)C(=O)[C@H]1CCC[C@@H](NC(=O)c2ccc(-c3cccc(F)c3)nc2)C1` (relative stereo) [Example 31, N-[cis-3-(Dimethyicarbamoyl)cyclohexyl]-6-(3-fluorophenyl)nicotinamide], the IC50 was found to be 10.8 nM.

For `O=C(N[C@H]1CC[C@H](C(=O)O)CC1)c1ccc(-c2cccc(F)c2)nc1` [Example 84, trans-4-({[6-(3-fluorophenyl)pyridin-3yl]carbonyl}amino)cyclohexanecarboxylic acid], the IC50 was 39.8 nM. The same measure for `CCN1CCN(C(=O)[C@H]2CC[C@H](NC(=O)c3ccc(-c4cccc(F)c4)nc3)CC2)CC1` [Example 96, N-{trans-4-[(4-Ethylpiperazin-1-yl)carbonyl]cyclohexyl}-6-(3-fluorophenyl)nicotinamide]: 23.7 nM; for `CC(C)(C)NC(=O)[C@H]1CC[C@@H](NC(=O)c2ccc(-c3cccc(F)c3)nc2)CC1` [Example 75, N-[cis-4-(tert-Butylcarbamoyl)cyclohexyl]-6-(3-fluorophenyl)nicotinamide]: 20.6 nM; for `O=C(N[C@H]1CC[C@H](C(=O)N2CCC(O)CC2)CC1)c1ccc(-c2cccc(F)c2)nc1` [Example 85, 6-(3-Fluorophenyl)-N-{trans-4-[(4-hydroxypiperidin-1-yl)carbonyl]cyclohexyl}nicotinamide]: 2.75 nM.

On to `O=C(NC1CCC(c2ncc[nH]2)CC1)c1ccc(-c2cccc(F)c2)nc1` (single isomer, unassigned) [Example 64, 6-(3-Fluorophenyl)-N-[4-(1H-imidazol-2-yl)cyclohexyl]nicotinamide], for which the IC50 was 6.2 nM. Under `O=C(NC1CCCc2cccnc21)c1ccc(-c2cccc(F)c2)nc1` (stereo not shown) [Example 128, 6-(3-Fluorophenyl)-N-(5,6,7,8-tetrahydroquinolin-8-yl)nicotinamide] stands 179 nM. `C[C@@H]1CNCCN1C(=O)[C@H]1CC[C@H](NC(=O)c2ccc(-c3cccc(F)c3)nc2)CC1` [Example 108, 6-(3-Fluorophenyl)-N-(trans-4-{[(2R)-2-methylpiperazin-1-yl]carbonyl}cyclohexyl)nicotinamide]: the IC50 came out at 21.8 nM. The same measure for `CC(C)NC(=O)[C@@H]1CCC[C@H](NC(=O)c2ccc(-c3cccc(F)c3)nc2)C1` (relative stereo) [Example 34, 6-(3-Fluorophenyl)-N-[cis-3-(isopropylcarbamoyl)cyclohexyl]nicotinamide]: 8.32 nM; for `CNCCN(C)C(=O)[C@H]1CC[C@H](NC(=O)c2ccc(-c3cccc(F)c3)nc2)CC1` [Example 93, 6-(3-Fluorophenyl)-N-(trans-4-{methyl[2-(methylamino)ethyl]carbamoyl}cyclohexyl)nicotinamide]: 15.3 nM.

Take `O=C(N[C@H]1CC[C@H](CN2CCOCC2)CC1)c1ccc(-c2cccc(F)c2)nc1` [Example 110, 6-(3-Fluorophenyl)-N-[trans-4-(morpholin-4-ylmethyl)cyclohexyl]nicotinamide]: the IC50 stood at 5.9 nM. The same measure for `CCN1CCN(C(=O)[C@H]2CCC[C@@H](NC(=O)c3ccc(-c4cccc(F)c4)nc3)C2)CC1` (racemic) [Example 41, N-{cis-3-[(4-Ethylpiperazin-1-yl)carbonyl]cyclohexyl}-6-(3-fluorophenyl)nicotinamide]: 7.18 nM; for `O=C(N[C@H]1CCC[C@@H](C(=O)N[C@@H]2CCNC2=O)C1)c1ccc(-c2cccc(F)c2)nc1` (mixture of isomers) [Example 64G, 6-(3-fluorophenyl)-N-[cis-3-{[(3R)-2-oxopyrrolidin-3-yl]carbamoyl}cyclohexyl]nicotinamide]: 17.2 nM.

With `CNCCN(C)C(=O)[C@@H]1CCC[C@H](NC(=O)c2ccc(-c3cccc(F)c3)nc2)C1` (relative stereo) [Example 37, 6-(3-Fluorophenyl)-N-[cis-3-{methyl[2-(methylamino)ethyl]carbamoyl}cyclohexyl]nicotinamide], the IC50 worked out at 25.4 nM. The same measure for “N-{cis-3-[(3-aminocyclohexyl)carbamoyl]cyclohexyl}-6-(3-fluorophenyl)nicotinamide N-{trans-3-[(3-aminocyclohexyl)carbamoyl]cyclohexyl}-6-(3-fluorophenyl)nicotinamide [Example 64D]”: 14.7 nM; for `N[C@H]1CCCC[C@@H]1NC(=O)[C@@H]1CCC[C@H](NC(=O)c2ccc(-c3cccc(F)c3)nc2)C1` (mixture of isomers) [Example 64B, N-[cis-3-{[(1S,2S)-2-aminocyclohexyl]carbamoyl}cyclohexyl]-6-(3-fluorophenyl)nicotinamide]: 64.6 nM. The same measure for `O=C(NC1CCC(NC2CCOC2)CC1)c1ccc(-c2cccc(F)c2)nc1` (single isomer, unassigned) [Example 56, 6-(3-Fluorophenyl)-N-[-4-(tetrahydrofuran-3-ylamino)cyclohexyl]nicotinamide]: 30.6 nM; for `O=C(NC1CCC(c2ncc[nH]2)CC1)c1ccc(-c2cccc(F)c2)nc1` (single isomer, unassigned) [Example 63, 6-(3-Fluorophenyl)-N-[4-(1H-imidazol-2-yl)cyclohexyl]nicotinamide]: 13 nM. The same measure for `CN1CCN(C(=O)C2(C)CCC(NC(=O)c3ccc(-c4cccc(F)c4)nc3)CC2)CC1` (stereo not drawn) [Example 118, 6-(3-Fluorophenyl)-N-{cis-4-methyl-4-[(4-methylpiperazin-1-yl)carbonyl]cyclohexyl}nicotinamide]: 51.2 nM. `O=C(N[C@H]1CC[C@H](C(=O)NC2CCCC2)CC1)c1ccc(-c2cccc(F)c2)nc1` [Example 86, N-[trans-4-(Cyclopentylcarbamoyl)cyclohexyl]-6-(3-fluorophenyl)nicotinamide]: the IC50 was 25.6 nM. The same measure for `O=C(NC1CCC(N2CC[C@@H](O)C2)CC1)c1ccc(-c2cccc(F)c2)nc1` (single isomer, unassigned) [Example 61]: 45 nM. The same measure for `CN(C)C[C@H]1CC[C@H](NC(=O)c2ccc(-c3cccc(F)c3)nc2)CC1` [Example 112, N-{trans-4-[(Dimethylamino)methyl]cyclohexyl}-6-(3-fluorophenyl)nicotinamide]: 15.8 nM. The same measure for `O=C(NC1CCC(N2CCC(O)CC2)CC1)c1ccc(-c2cccc(F)c2)nc1` (stereo not shown) [Example 62, 6-(3-Fluorophenyl)-N-[4-(4-hydroxypiperidin-1-yl)cyclohexyl]nicotinamide]: 137 nM. Regarding `O=C(N[C@H]1CCC[C@@H](C(=O)N[C@@H]2CCOC2)C1)c1ccc(-c2cccc(F)c2)nc1` (mixture of isomers) [Example 64K, 6-(3-fluorophenyl)-N-{cis-3-[(3R)-tetrahydrofuran-3-ylcarbamoyl]cyclohexyl}nicotinamide], the concentration for half-maximal inhibition (IC50) worked out at 10.9 nM. Consider `CC(C)(C)NC(=O)[C@@H]1CCC[C@H](NC(=O)c2ccc(-c3cccc(F)c3)nc2)C1` (relative stereo) [Example 38, N-[cis-3-(tert-Butylcarbamoyl)cyclohexyl]-6-(3-fluorophenyl)nicotinamide], for which the IC50 worked out at 8.43 nM. Under `CN1CCN(C[C@H]2CC[C@H](NC(=O)c3ccc(-c4cccc(F)c4)nc3)CC2)CC1` [Example 111, 6-(3-Fluorophenyl)-N-{trans-4-[(4-methylpiperazin-1-yl)methyl]cyclohexyl}nicotinamide] stands 23 nM; under `CN(C)C(=O)[C@H]1CC[C@@H](NC(=O)c2ccc(-c3cccc(F)c3)nc2)CC1` [Example 74, N-[cis-4-(Dimethylcarbamoyl)cyclohexyl]-6-(3-fluorophenyl)nicotinamide], 10.8 nM.
